Each block holds one compound with its values, some of them ahead of it.
Legend:
[1] = target: T1, Protein kinase C zeta type (Homo sapiens) (UniProt Q05513); assay: Selectivity interaction (Millipore kinase profiler) EUB0000124b PRKCZ; conditions: at 10 µM
T1 sequence (whole entry): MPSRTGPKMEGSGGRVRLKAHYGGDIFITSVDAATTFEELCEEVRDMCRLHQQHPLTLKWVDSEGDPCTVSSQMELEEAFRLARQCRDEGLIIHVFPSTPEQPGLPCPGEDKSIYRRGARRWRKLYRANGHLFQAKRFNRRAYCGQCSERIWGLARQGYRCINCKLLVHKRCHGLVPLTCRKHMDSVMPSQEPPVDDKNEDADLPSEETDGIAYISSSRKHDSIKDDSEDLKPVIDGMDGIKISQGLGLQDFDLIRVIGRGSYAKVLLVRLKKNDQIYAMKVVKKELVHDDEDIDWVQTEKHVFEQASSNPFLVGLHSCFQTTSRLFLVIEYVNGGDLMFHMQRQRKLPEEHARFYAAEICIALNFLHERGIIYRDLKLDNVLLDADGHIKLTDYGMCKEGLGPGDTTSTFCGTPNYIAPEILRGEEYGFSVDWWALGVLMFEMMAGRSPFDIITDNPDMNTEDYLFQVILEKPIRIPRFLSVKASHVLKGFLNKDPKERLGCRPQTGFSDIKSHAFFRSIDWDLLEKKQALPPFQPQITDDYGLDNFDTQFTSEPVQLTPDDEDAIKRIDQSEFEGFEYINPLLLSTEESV

[2] = target: Tyrosine-protein kinase Fes/Fps (Homo sapiens) (UniProt P07332); assay: Selectivity interaction (Ambit KINOMEscan and KiNATiv profiling in Jurkat cells) EUB0000090b FES; format: cell-based; conditions: at 1 µM
Sequence of Tyrosine-protein kinase Fes/Fps (Homo sapiens) (P07332 whole entry): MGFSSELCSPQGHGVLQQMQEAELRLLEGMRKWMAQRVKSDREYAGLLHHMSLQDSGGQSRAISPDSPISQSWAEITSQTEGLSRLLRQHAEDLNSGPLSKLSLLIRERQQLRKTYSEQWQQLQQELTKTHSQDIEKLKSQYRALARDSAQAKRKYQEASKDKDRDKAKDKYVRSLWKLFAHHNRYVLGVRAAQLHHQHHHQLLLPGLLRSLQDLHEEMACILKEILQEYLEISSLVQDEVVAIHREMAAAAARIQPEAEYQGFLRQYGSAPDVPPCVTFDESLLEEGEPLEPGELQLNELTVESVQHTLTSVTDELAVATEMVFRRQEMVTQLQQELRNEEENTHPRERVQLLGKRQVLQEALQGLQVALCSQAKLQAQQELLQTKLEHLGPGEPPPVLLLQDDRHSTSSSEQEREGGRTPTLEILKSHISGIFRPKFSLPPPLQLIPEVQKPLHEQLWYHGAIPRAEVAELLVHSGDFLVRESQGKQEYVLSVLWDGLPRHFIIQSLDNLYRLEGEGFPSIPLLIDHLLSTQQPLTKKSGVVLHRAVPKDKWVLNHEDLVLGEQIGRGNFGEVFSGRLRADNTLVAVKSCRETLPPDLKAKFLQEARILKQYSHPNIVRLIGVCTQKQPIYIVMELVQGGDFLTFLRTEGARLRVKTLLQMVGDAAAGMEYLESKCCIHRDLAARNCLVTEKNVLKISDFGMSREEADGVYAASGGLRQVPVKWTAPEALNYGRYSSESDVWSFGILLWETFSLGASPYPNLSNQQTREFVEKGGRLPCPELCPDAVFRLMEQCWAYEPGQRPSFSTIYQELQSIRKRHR

[3] = target: Protein kinase C delta type (Homo sapiens) (UniProt Q05655); assay: Selectivity interaction (Kinase panel (Invitrogen)) EUB0000639a PRKCD; conditions: at 200 nM
Sequence of Protein kinase C delta type (Homo sapiens) (Q05655 whole entry, looked up): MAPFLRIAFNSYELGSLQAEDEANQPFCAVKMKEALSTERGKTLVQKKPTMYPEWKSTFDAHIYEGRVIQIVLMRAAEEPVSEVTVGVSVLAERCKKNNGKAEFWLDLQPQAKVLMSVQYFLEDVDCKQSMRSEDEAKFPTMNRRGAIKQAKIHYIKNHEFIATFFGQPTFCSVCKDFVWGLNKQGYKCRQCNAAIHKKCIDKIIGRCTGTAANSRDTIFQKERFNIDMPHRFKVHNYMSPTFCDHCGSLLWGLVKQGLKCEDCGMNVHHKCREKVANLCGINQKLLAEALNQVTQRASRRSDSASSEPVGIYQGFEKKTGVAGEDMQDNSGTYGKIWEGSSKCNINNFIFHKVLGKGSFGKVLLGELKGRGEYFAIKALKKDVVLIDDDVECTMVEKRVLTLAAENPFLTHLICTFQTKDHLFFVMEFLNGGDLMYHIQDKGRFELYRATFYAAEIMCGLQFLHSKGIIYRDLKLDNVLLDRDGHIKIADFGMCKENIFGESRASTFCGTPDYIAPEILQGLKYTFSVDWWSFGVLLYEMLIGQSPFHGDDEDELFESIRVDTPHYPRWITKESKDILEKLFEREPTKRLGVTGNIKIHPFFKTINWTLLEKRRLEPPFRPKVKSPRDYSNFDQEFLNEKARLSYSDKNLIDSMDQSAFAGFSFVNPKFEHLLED

[4] = target: Calcium/calmodulin-dependent protein kinase kinase 2 (Homo sapiens) (UniProt Q96RR4); assay: Selectivity interaction (Kinase panel (Invitrogen)) EUB0000639a CAMKK2; conditions: at 200 nM
Sequence of Calcium/calmodulin-dependent protein kinase kinase 2 (Homo sapiens) (Q96RR4 2-588 limits assumed): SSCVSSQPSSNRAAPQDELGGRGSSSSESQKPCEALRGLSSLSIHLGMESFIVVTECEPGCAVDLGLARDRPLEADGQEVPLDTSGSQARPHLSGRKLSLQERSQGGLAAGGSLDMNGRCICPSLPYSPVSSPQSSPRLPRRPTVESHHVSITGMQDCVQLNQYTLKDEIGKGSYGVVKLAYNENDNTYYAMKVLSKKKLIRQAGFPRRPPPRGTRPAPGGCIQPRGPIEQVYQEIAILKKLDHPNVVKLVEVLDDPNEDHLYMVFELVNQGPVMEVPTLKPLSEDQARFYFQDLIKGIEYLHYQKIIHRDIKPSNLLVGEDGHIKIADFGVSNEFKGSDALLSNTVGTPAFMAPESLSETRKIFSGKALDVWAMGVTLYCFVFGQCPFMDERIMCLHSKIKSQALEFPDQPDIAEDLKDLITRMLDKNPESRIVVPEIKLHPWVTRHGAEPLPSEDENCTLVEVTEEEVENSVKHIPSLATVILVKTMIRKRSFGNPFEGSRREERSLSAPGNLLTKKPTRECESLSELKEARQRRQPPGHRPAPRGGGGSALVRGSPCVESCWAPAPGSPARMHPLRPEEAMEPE

[5] = target: Histone-lysine N-methyltransferase, H3 lysine-36 specific (Homo sapiens) (UniProt Q96L73); conditions: at 1 µM
[6] = target: Casein kinase II subunit alpha (Homo sapiens, UniProt P68400); conditions: at 10 µM
Sequence of Casein kinase II subunit alpha (P68400 whole entry, looked up): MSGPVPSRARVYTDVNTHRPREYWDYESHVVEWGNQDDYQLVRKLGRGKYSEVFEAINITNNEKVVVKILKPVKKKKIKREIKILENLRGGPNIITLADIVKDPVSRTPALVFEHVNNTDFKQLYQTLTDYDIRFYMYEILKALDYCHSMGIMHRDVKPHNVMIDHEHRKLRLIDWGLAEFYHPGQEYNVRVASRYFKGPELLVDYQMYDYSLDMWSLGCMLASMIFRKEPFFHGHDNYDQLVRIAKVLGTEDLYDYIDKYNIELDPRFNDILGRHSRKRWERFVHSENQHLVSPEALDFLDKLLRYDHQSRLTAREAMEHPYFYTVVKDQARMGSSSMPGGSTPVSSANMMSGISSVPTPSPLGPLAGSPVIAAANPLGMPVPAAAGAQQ

[7] = target: Dual specificity tyrosine-phosphorylation-regulated kinase 1A (Homo sapiens, UniProt Q13627); assay: Selectivity interaction (KinomeScan (DiscoverX)) EUB0000229b DYRK1A; conditions: at 10 µM
[8] = target: Phosphatidylinositol 4,5-bisphosphate 3-kinase catalytic subunit alpha isoform (Homo sapiens) (UniProt P42336); assay: Selectivity interaction (ProQinase) EUB0000171b PIK3CA
Sequence of Phosphatidylinositol 4,5-bisphosphate 3-kinase catalytic subunit alpha isoform (Homo sapiens) (P42336 whole entry, canonical isoform): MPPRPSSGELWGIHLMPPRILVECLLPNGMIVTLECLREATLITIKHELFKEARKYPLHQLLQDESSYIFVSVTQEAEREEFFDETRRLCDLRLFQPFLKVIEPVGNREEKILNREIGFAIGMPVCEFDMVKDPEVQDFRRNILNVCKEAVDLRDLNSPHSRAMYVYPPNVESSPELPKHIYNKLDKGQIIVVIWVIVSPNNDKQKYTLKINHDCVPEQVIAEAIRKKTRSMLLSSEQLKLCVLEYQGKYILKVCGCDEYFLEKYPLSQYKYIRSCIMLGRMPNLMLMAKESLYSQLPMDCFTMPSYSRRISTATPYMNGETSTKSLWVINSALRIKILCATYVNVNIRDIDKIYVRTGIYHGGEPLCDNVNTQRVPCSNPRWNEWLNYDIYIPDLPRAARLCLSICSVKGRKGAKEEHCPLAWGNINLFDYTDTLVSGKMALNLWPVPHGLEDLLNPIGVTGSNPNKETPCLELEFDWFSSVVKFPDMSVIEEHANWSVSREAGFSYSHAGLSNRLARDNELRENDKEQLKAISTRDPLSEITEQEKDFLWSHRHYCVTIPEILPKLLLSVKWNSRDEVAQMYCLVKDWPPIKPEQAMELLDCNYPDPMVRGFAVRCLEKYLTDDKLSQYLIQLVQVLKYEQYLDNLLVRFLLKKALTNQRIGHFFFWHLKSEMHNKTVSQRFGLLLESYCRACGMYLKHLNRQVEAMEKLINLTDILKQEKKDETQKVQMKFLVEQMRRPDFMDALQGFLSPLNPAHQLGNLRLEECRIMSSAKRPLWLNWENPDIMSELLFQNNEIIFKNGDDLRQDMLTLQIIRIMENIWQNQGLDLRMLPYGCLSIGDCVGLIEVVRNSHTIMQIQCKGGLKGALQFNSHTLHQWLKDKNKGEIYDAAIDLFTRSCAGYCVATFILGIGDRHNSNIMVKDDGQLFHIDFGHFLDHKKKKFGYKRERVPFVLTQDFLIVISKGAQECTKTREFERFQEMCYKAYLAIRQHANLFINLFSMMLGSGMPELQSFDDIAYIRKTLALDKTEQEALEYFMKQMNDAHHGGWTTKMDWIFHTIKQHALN

[9] = target: T2, Phosphatidylinositol 4,5-bisphosphate 3-kinase catalytic subunit delta isoform (Homo sapiens) (UniProt O00329); assay: Selectivity interaction (KinomeScan (DiscoverX)) EUB0000655a PIK3CD; conditions: at 10 µM
T2 sequence (whole entry): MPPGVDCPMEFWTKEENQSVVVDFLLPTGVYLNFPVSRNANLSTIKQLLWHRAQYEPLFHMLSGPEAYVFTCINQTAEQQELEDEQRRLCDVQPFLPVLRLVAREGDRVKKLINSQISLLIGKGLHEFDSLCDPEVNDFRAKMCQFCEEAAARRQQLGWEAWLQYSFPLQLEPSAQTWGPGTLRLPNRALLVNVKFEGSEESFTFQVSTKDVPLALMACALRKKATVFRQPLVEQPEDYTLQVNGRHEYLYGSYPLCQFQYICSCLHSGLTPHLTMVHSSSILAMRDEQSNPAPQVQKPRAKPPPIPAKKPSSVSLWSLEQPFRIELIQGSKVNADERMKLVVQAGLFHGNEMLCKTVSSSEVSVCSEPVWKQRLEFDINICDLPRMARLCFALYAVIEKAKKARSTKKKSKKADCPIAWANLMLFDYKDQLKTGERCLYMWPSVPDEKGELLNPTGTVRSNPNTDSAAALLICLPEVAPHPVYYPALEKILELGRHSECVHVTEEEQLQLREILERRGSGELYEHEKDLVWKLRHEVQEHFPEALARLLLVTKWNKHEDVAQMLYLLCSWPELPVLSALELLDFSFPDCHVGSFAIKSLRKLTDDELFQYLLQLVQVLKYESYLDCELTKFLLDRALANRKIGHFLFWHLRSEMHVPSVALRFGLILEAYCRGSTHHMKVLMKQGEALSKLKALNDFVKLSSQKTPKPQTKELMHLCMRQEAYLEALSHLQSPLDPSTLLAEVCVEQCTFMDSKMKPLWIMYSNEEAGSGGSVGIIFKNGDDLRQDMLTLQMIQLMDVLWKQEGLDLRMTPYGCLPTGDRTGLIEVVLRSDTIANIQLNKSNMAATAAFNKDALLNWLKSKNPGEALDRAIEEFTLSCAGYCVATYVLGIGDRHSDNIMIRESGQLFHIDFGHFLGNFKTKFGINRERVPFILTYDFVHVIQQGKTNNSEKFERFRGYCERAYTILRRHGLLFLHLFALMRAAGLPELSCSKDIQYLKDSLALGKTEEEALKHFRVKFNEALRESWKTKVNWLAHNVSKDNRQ

[10] = target: Macrophage-stimulating protein receptor (Homo sapiens, UniProt Q04912); assay: Selectivity interaction (KinomeScan (DiscoverX)) EUB0000666a MST1R; conditions: at 10 µM
Sequence of Macrophage-stimulating protein receptor (Q04912 25-304 limits assumed): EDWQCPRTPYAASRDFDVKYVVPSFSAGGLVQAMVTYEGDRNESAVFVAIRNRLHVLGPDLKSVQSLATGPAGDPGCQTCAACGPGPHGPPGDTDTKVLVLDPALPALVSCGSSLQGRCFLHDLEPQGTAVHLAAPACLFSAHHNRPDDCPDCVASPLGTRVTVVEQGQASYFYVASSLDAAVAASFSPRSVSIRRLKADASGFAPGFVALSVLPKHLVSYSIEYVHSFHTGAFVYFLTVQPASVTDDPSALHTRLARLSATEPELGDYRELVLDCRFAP
Sequence of Macrophage-stimulating protein receptor (Q04912 310-1400 limits assumed): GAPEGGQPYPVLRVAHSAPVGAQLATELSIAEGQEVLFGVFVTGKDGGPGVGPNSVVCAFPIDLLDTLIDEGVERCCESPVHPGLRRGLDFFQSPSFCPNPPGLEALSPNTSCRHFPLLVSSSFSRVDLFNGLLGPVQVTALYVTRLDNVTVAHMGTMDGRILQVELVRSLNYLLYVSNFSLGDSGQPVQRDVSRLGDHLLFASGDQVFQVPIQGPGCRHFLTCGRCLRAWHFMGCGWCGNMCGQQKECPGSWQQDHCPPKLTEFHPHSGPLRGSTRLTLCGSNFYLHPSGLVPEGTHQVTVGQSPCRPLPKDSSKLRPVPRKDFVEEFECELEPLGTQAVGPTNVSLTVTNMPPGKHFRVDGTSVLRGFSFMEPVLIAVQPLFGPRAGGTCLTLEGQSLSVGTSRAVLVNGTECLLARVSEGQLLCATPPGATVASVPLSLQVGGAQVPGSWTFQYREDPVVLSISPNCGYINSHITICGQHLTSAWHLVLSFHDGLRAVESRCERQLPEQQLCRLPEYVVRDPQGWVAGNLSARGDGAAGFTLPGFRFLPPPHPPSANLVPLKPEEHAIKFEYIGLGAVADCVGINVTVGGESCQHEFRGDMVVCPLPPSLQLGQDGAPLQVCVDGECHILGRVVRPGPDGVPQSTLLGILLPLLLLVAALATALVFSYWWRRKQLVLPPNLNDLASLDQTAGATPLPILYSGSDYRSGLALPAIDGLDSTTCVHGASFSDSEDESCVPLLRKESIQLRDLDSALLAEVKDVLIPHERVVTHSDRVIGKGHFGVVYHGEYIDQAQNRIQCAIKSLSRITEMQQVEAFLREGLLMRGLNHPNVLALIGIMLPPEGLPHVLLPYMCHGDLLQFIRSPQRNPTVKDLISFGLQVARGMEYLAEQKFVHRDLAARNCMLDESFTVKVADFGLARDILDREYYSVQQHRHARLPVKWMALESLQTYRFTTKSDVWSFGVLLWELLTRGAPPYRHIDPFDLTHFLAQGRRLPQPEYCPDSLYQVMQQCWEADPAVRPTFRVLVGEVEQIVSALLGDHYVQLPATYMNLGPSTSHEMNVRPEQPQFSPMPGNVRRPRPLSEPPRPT

[11] = target: Glutamate receptor ionotropic, NMDA 1 (Homo sapiens) (UniProt Q05586); assay: Selectivity interaction (Panel of kinases, GPCRs, ion channels and transporters (enzymatic assay)) EUB0000223bCl GRIN1

% of control [1]: 102%
SMILES: CC(=O)Nc1cccc(-n2c(=O)n(C3CC3)c(=O)c3c(Nc4ccc(I)cc4F)n(C)c(=O)c(C)c32)c1

SMILES: CN(C)C/C=C/C(=O)Nc1ccc(C(=O)N2CCCC(Nc3ncc(Cl)c(-c4c[nH]c5ccccc45)n3)C2)cc1 (configuration not stated)
% of control [2]: 68%

% of inhibition [3]: -5.07%
% of inhibition [4]: -1.97%
SMILES: CC[C@@H]1[C@H](F)C(=O)N[C@@H]1COc1nccc2cc(C(N)=O)c(OC)cc12 [ZIMLOVISERTIB]

% activity [5]: > 90%
SMILES: CNCCN1CCC(c2cc(CN(C)C(=O)c3cccc(Oc4ccccc4)c3)ccn2)CC1

SMILES: COCC(=O)NC/C=C/c1ccc2ncnc(Nc3ccc(Oc4ccc(C)nc4)c(C)c3)c2c1 [CP-724714]
% of control [6]: 87%

SMILES: COc1cc(N(C)c2ccnc3ccc(C(F)(F)F)cc23)cc(OC)c1OC
% binding [7]: 65%

% of control ([8]; at 1 µM): 118%
% of control ([8]; at 5 µM): 106%
SMILES: C=CC(=O)Nc1cccc(C(=O)Nc2ccc(Nc3cc(-c4[nH]c(SC)nc4C)ccn3)cc2)c1

SMILES: CN(C)CCOc1ccc(-c2nc(-c3ccncc3)c(-c3ccc4c(c3)CC/C4=N\O)[nH]2)cc1
% of control [9]: 79%

SMILES: O=C(NOC[C@H](O)CO)c1ccc(F)c(F)c1Nc1ccc(I)cc1F
% of control [10]: 78%

SMILES: COc1cc(C(=O)N2CC[C@@H](O)[C@@H](N)C2)cc2nc(-c3cc4ccccc4n3CC3CC3)n(C)c12
pXC50 [11]: 4.8 M

From ChEMBL document CHEMBL5465560, “Selectivity Literature for EUbOPEN Chemogenomic Library” (2024)
